Measurements from patent US20100267561A1, “HERBICIDAL PYRIDAZINONE DERIVATIVES” (priority 2007, published 2010).
Where two headings read alike, the source gives them in different places.

Legend:
Format in all cases: in vivo
[1] = test system: surinam grass (Brachiaria decumbens); assay: Test B pre-/postemergence plant response; conditions: for pest or weed control at 31 g/ha / pest or weed control at 62 g/ha / pest or weed control at 125 g/ha / pest or weed control at 250 g/ha: Urochloa decumbens, read-out: Plant response rating, Surinam Grass
Description: Seeds of plant species selected from blackgrass (Alopecurus myosuroides), downy bromegrass (Bromus tectorum), green foxtail (Setaria viridis), Italian ryegrass (Lolium multiflorum), wheat (Triticum aestivum), wild oat (Avena fatua), catchweed bedstraw (Galium aparine), bermudagrass (Cynodon dactylon), surinam grass (Brachiaria decumbens), cocklebur (Xanthium strumarium), corn (Zea mays), large crabgrass (Digitaria sanguinalis), woolly cupgrass (Eriochloa villosa), giant foxtail (Setaria faberii), goosegrass (Eleusine indica), johnsongrass (Sorghum halepense), kochia (Kochia scoparia), lambsquarters (Chenopodium album), morningglory (Ipomoea coccinea), eastern black (E.B.) nightshade (Solanum ptycanthum), yellow nutsedge (Cyperus esculentus), pigweed (Amaranthus retroflexus), common ragweed (Ambrosia elation), Russian thistle (Salsola iberica), soybean (Glycine max), common (oilseed) sunflower (Helianthus annuus), and velvetleaf (Abutilon theophrasti) were planted and treated preemergence with test chemicals formulated in a non-phytotoxic solvent mixture which included a surfactant.
At the same time, plants selected from these crop and weed species and also winter barley (Hordeum vulgare), canarygrass (Phalaris minor), chickweed (Stellaria media) and windgrass (Apera spica-venti) were treated with postemergence applications of some of the test chemicals formulated in the same manner. Plants ranged in height from 2 to 18 cm (1- to 4-leaf stage) for postemergence treatments.
Plant species in the flooded paddy test consisted of rice (Oryza sativa), umbrella sedge (Cyperus difformis), ducksalad (Heteranthera limosa) and barnyardgrass (Echinochloa crus-galli) grown to the 2-leaf stage for testing. At time of treatment, test pots were flooded to 3 cm above the soil surface, treated by application of test compounds directly to the paddy water, and then maintained at that water depth for the duration of the test. Treated plants and controls were maintained in a greenhouse for 13 to 15 days, after which time all species were compared to controls and visually evaluated. Plant response ratings, summarized in Table B, are based on a scale of 0 to 100 where 0 is no effect and 100 is complete control. A dash (-) response means no test result.

corn (Zea mays) = assay: Test A pre-/postemergence plant response; conditions: for Corn plant response rating (crop injury, 0 = no effect, 100 = complete kill) at 1000 g/ha: Zea mays, 240 h, 1000 g ai/ha
Procedure, shortened: (§1)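 Ratings are visual, 0–100, where 100 means complete control and 0 no effect, taken roughly 10 days after treatment by comparison with untreated controls. Formulation: non-phytotoxic solvent mixture with surfactant.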

[2] = test system: morningglory (Ipomoea coccinea); assay: Test A pre-/postemergence plant response
Procedure, shortened: as §1

[3] = test system: velvetleaf (Abutilon theophrasti); assay: Test A pre-/postemergence plant response
Procedure, shortened: as §1

[4] = test system: giant foxtail (Setaria faberi); assay: Test A pre-/postemergence plant response; conditions: for pest or weed control at 1000 g/ha: Setaria faberi, 240 h, 1000 g ai/ha, read-out: Plant response rating, Foxtail, Giant
Procedure, shortened: as §1

[5] = test system: large crabgrass (Digitaria sanguinalis); assay: Test A pre-/postemergence plant response; conditions: for pest or weed control at 1000 g/ha: Digitaria sanguinalis, 240 h, 1000 g ai/ha, read-out: Plant response rating, Crabgrass, Large
Procedure, shortened: as §1

[6] = test system: barnyardgrass (Echinochloa crus-galli); assay: Test A pre-/postemergence plant response; conditions: for pest or weed control at 1000 g/ha: Echinochloa crus-galli, 240 h, 1000 g ai/ha, read-out: Plant response rating, Barnyardgrass
Procedure, shortened: as §1

[7] = test system: wheat (Triticum aestivum); assay: Test A pre-/postemergence plant response; conditions: for plant injury at 1000 g/ha: Triticum aestivum, 240 h, 1000 g ai/ha, read-out: Plant response rating, Wheat
Procedure, shortened: as §1

[8] = test system: pigweed (Amaranthus retroflexus); assay: Test A pre-/postemergence plant response; conditions: for pest or weed control at 1000 g/ha: Amaranthus retroflexus, 240 h, 1000 g ai/ha, read-out: Plant response rating, Pigweed
Procedure, shortened: as §1

[9] = test system: canarygrass (Phalaris minor); assay: Test B postemergence plant response; conditions: Postemergence
Procedure, shortened: (§2)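 Postemergence spray on 1- to 4-leaf plants (2–18 cm); greenhouse 13–15 d; visual rating vs controls, 0 = no effect, 100 = complete control; dash = not tested.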

[10] = test system: winter barley (Hordeum vulgare); assay: Test B postemergence plant response; conditions: Postemergence
Procedure, shortened: as §2

[11] = test system: chickweed (Stellaria media); assay: Test B postemergence plant response; conditions: Postemergence
Procedure, shortened: as §2

[12] = test system: windgrass (Apera spica-venti); assay: Test B postemergence plant response; conditions: Postemergence
Procedure, shortened: as §2

[13] = post-emergence, Postemergence, 0 to 100 scale, 0 no effect, 100 complete control
[14] = pre-emergence, Preemergence, 0 to 100 scale (0 no effect, 100 complete control)
[15] = Postemergence, 1000 g ai/ha, 0 to 100 scale, 0 no effect, 100 complete control
[16] = Preemergence, 1000 g ai/ha, 0 to 100 scale (0 no effect, 100 complete control)
[17] = 31 g ai/ha, scale 0 to 100, 0 no effect, 100 complete control
[18] = Postemergence, 125 g ai/ha, 0 to 100 scale, 0 no effect, 100 complete control
[19] = Postemergence, 500 g ai/ha, 0 to 100 scale, 0 no effect, 100 complete control
[20] = Preemergence, 125 g ai/ha, 0 to 100 scale (0 no effect, 100 complete control)
[21] = Preemergence, 500 g ai/ha, 0 to 100 scale (0 no effect, 100 complete control)

Compound: Cc1cc(-c2ccc(C(F)(F)F)cc2)nn1-c1c(O)cnn(C)c1=O [Compound 1, 5-hydroxy-2-methyl-4-[5-methyl-3-[4-(trifluoromethyl)phenyl]-1H-pyrazol-1-yl]-3(2H)-pyridazinone]
- pest or weed control at 31 g/ha ([1]; post-emergence, Postemergence, 31 g ai/ha, scale 0 to 100, 0 no effect, 100 complete control): 100%
- pest or weed control at 62 g/ha ([1]; post-emergence, Postemergence, 62 g ai/ha, scale 0 to 100): 100%
- pest or weed control at 125 g/ha ([1]; post-emergence, Postemergence, 125 g ai/ha, scale 0 to 100): 100%
- pest or weed control at 250 g/ha ([1]; post-emergence, Postemergence, 250 g ai/ha, scale 0 to 100): 100%
- pest or weed control at 31 g/ha ([1]; pre-emergence, Preemergence, 31 g ai/ha, 0 to 100 scale, 0 no effect, 100 complete control): 100%
- pest or weed control at 62 g/ha ([1]; pre-emergence, Preemergence, 62 g ai/ha, scale 0 to 100): 100%
- pest or weed control at 125 g/ha ([1]; pre-emergence, Preemergence, 125 g ai/ha, scale 0 to 100): 100%
- pest or weed control at 250 g/ha ([1]; pre-emergence, Preemergence, 250 g ai/ha, scale 0 to 100): 100%
- Corn plant response rating (crop injury, 0 = no effect, 100 = complete kill) at 1000 g/ha (corn (Zea mays); [13]): 100%
- Corn plant response rating (crop injury, 0 = no effect, 100 = complete kill) at 1000 g/ha (corn (Zea mays); [14]): 100%
- Plant response rating, Morningglory [2, 15]: 60
- Plant response rating, Morningglory [2, 16]: 0
- Plant response rating, Velvetleaf [3, 15]: 60
- Plant response rating, Velvetleaf [3, 16]: 0
- pest or weed control at 1000 g/ha [4, 13]: 100%
- pest or weed control at 1000 g/ha [4, 14]: 100%
- pest or weed control at 1000 g/ha [5, 13]: 100%
- pest or weed control at 1000 g/ha [5, 14]: 90%
- pest or weed control at 1000 g/ha [6, 13]: 100%
- pest or weed control at 1000 g/ha [6, 14]: 100%
- plant injury at 1000 g/ha [7, 13]: 100%
- plant injury at 1000 g/ha [7, 14]: 90%
- pest or weed control at 1000 g/ha [8, 13]: 30%
- pest or weed control at 1000 g/ha [8, 14]: 20%
- Plant response rating, Canarygrass [9, 17]: 0
- Plant response rating, Canarygrass ([9]; 62 g ai/ha, scale 0 to 100): 0
- Plant response rating, Canarygrass ([9]; 125 g ai/ha, scale 0 to 100): 0
- Plant response rating, Canarygrass ([9]; 250 g ai/ha, scale 0 to 100): 40
- Plant response rating, Barley [10, 17]: 0
- Plant response rating, Barley ([10]; 62 g ai/ha, scale 0 to 100): 0
- Plant response rating, Barley ([10]; 125 g ai/ha, scale 0 to 100): 0
- Plant response rating, Barley ([10]; 250 g ai/ha, scale 0 to 100): 30
- Plant response rating, Chickweed [11, 17]: 0
- Plant response rating, Chickweed ([11]; 62 g ai/ha, scale 0 to 100): 0
- Plant response rating, Chickweed ([11]; 125 g ai/ha, scale 0 to 100): 0
- Plant response rating, Chickweed ([11]; 250 g ai/ha, scale 0 to 100): 5
- Plant response rating, Windgrass [12, 17]: 95
- Plant response rating, Windgrass ([12]; 62 g ai/ha, scale 0 to 100): 100
- Plant response rating, Windgrass ([12]; 125 g ai/ha, scale 0 to 100): 100
- Plant response rating, Windgrass ([12]; 250 g ai/ha, scale 0 to 100): 100

Compound: Cc1cc(-c2ccc(Br)cc2)nn1-c1c(O)cnn(C)c1=O [Compound 4]
- Plant response rating, Surinam Grass ([1]; Postemergence, 31 g ai/ha, scale 0 to 100, 0 no effect, 100 complete control): 100
- Plant response rating, Surinam Grass ([1]; Postemergence, 62 g ai/ha, scale 0 to 100): 100
- Plant response rating, Surinam Grass ([1]; Postemergence, 125 g ai/ha, scale 0 to 100): 100
- Plant response rating, Surinam Grass ([1]; Postemergence, 250 g ai/ha, scale 0 to 100): 100
- Plant response rating, Surinam Grass ([1]; Preemergence, 31 g ai/ha, 0 to 100 scale, 0 no effect, 100 complete control): 100
- Plant response rating, Surinam Grass ([1]; Preemergence, 62 g ai/ha, scale 0 to 100): 100
- Plant response rating, Surinam Grass ([1]; Preemergence, 125 g ai/ha, scale 0 to 100): 100
- Plant response rating, Surinam Grass ([1]; Preemergence, 250 g ai/ha, scale 0 to 100): 100
- Plant response rating, Corn (corn (Zea mays); [18]): 90
- Plant response rating, Corn (corn (Zea mays); [19]): 100
- Plant response rating, Corn (corn (Zea mays); [20]): 70
- Plant response rating, Corn (corn (Zea mays); [21]): 90
- Plant response rating, Morningglory [2, 18]: 0
- Plant response rating, Morningglory [2, 19]: 20
- Plant response rating, Morningglory [2, 20]: 0
- Plant response rating, Morningglory [2, 21]: 0
- Plant response rating, Velvetleaf [3, 18]: 20
- Plant response rating, Velvetleaf [3, 19]: 60
- Plant response rating, Velvetleaf [3, 20]: 0
- Plant response rating, Velvetleaf [3, 21]: 10
- Plant response rating, Foxtail, Giant [4, 18]: 100
- Plant response rating, Foxtail, Giant [4, 19]: 100
- Plant response rating, Foxtail, Giant [4, 20]: 100
- Plant response rating, Foxtail, Giant [4, 21]: 100
- Plant response rating, Crabgrass, Large [5, 18]: 100
- Plant response rating, Crabgrass, Large [5, 19]: 100
- Plant response rating, Crabgrass, Large [5, 20]: 100
- Plant response rating, Crabgrass, Large [5, 21]: 100
- Plant response rating, Barnyardgrass [6, 18]: 100
- Plant response rating, Barnyardgrass [6, 19]: 100
- Plant response rating, Barnyardgrass [6, 20]: 100
- Plant response rating, Barnyardgrass [6, 21]: 100
- Plant response rating, Wheat [7, 18]: 60
- Plant response rating, Wheat [7, 19]: 80
- Plant response rating, Wheat [7, 20]: 70
- Plant response rating, Wheat [7, 21]: 100
- Plant response rating, Pigweed [8, 18]: 0
- Plant response rating, Pigweed [8, 19]: 20
- Plant response rating, Pigweed [8, 20]: 0
- Plant response rating, Pigweed [8, 21]: 0
- Plant response rating, Canarygrass [9, 17]: 80
- Plant response rating, Canarygrass ([9]; 62 g ai/ha, scale 0 to 100): 90
- Plant response rating, Canarygrass ([9]; 125 g ai/ha, scale 0 to 100): 100
- Plant response rating, Canarygrass ([9]; 250 g ai/ha, scale 0 to 100): 100
- Plant response rating, Barley [10, 17]: 0
- Plant response rating, Barley ([10]; 62 g ai/ha, scale 0 to 100): 10
- Plant response rating, Barley ([10]; 125 g ai/ha, scale 0 to 100): 90
- Plant response rating, Barley ([10]; 250 g ai/ha, scale 0 to 100): 95
- Plant response rating, Chickweed [11, 17]: 0
- Plant response rating, Chickweed ([11]; 62 g ai/ha, scale 0 to 100): 0
- Plant response rating, Chickweed ([11]; 125 g ai/ha, scale 0 to 100): 0
- Plant response rating, Chickweed ([11]; 250 g ai/ha, scale 0 to 100): 20
- Plant response rating, Windgrass [12, 17]: 90
- Plant response rating, Windgrass ([12]; 62 g ai/ha, scale 0 to 100): 100
- Plant response rating, Windgrass ([12]; 125 g ai/ha, scale 0 to 100): 100
- Plant response rating, Windgrass ([12]; 250 g ai/ha, scale 0 to 100): 100
